Laboratory results published in patent US10111890B2, “9-aminomethyl minocycline compounds and uses thereof” (Paratek Pharmaceuticals, Inc., priority 2016, dated 2018).

Columns and labels:
[1] = test system: ABSSSI known or suspected to be due to Gram-positive pathogens; experiment: Phase 3 oral omadacycline vs oral linezolid in ABSSSI: Investigator's Assessment of Clinical Response at PTE; assay type: in vivo, human; conditions: for Overall Clinical Success at PTE, %: micro-mITT, % of N1; for Difference (95% CI) in Overall Clinical Success rate at PTE: omadacycline minus linezolid
ABSSSI = experiment: Earlier Phase 3 i.v.-to-oral omadacycline vs linezolid study in ABSSSI: clinical success; assay type: in vivo, human; conditions: i.v. with switch to oral
[2] = Cellulitis/erysipelas, actual type, mITT
[3] = Cellulitis/erysipelas, as randomized, mITT
[4] = Major Abscess, actual type, mITT
[5] = Major Abscess, as randomized, mITT
[6] = Wound Infection, actual type, mITT
[7] = Wound Infection, as randomized, mITT

CN(C)c1cc(CNCC(C)(C)C)c(O)c2c1C[C@H]1C[C@H]3[C@H](N(C)C)C(O)=C(C(N)=O)C(=O)[C@@]3(O)C(O)=C1C2=O [Omadacycline, 9-[(2,2-dimethyl-propylamino)-methyl]-minocycline]
Overall clinical response at PTE: Clinical Failure [1, 2]: 2 (2.3) n (%) | Overall clinical response at PTE: Clinical Failure or Indeterminate [1, 2]: 10 (11.6) n (%) | Overall clinical response at PTE: Indeterminate [1, 2]: 8 (9.3) n (%) | Overall clinical response at PTE: Clinical Failure [1, 3]: 2 (2.4) n (%) | Overall clinical response at PTE: Clinical Failure or Indeterminate [1, 3]: 10 (12.2) n (%) | Overall clinical response at PTE: Indeterminate [1, 3]: 8 (9.8) n (%) | Overall clinical response at PTE: Clinical Success ([1]; Cellulitis/erysipelas, type of infection as randomized, investigator assessment, mITT): 72 (87.8) n (%) | Overall clinical response at PTE: Clinical Success ([1]; Major Abscess, actual type of infection, investigator assessment, mITT): 54 (84.4) n (%) | Overall clinical response at PTE: Clinical Failure [1, 4]: 2 (3.1) n (%) | Overall clinical response at PTE: Clinical Failure or Indeterminate [1, 4]: 10 (15.6) n (%) | Overall clinical response at PTE: Indeterminate [1, 4]: 8 (12.5) n (%) | Overall clinical response at PTE: Clinical Failure [1, 5]: 2 (3.1) n (%) | Overall clinical response at PTE: Clinical Failure or Indeterminate [1, 5]: 10 (15.6) n (%) | Overall clinical response at PTE: Indeterminate [1, 5]: 8 (12.5) n (%) | Overall clinical response at PTE: Clinical Success ([1]; Major Abscess, type of infection as randomized, investigator assessment, mITT): 54 (84.4) n (%) | Overall clinical response at PTE: Clinical Success ([1]; Wound Infection, actual type of infection, investigator assessment, mITT): 173 (82.4) n (%) | Overall clinical response at PTE: Clinical Failure [1, 6]: 8 (3.8) n (%) | Overall clinical response at PTE: Clinical Failure or Indeterminate [1, 6]: 37 (17.6) n (%) | Overall clinical response at PTE: Indeterminate [1, 6]: 29 (13.8) n (%) | Overall clinical response at PTE: Clinical Failure [1, 7]: 8 (3.7) n (%) | Overall clinical response at PTE: Clinical Failure or Indeterminate [1, 7]: 37 (17.3) n (%) | Overall clinical response at PTE: Indeterminate [1, 7]: 29 (13.6) n (%) | Overall clinical response at PTE: Clinical Success ([1]; Wound Infection, type of infection as randomized, investigator assessment, mITT): 177 (82.7) n (%) | Overall Clinical Success at PTE, % ([1]; baseline pathogen Clostridium perfringens, investigator assessment): (80.0) % | Overall Clinical Success at PTE, % ([1]; baseline pathogen Enterobacter cloacae, investigator assessment): (80.0) % | Overall Clinical Success at PTE, % ([1]; baseline pathogen Enterococcus faecalis VSE, investigator assessment): (100.0) % | Overall Clinical Success at PTE, % ([1]; baseline pathogen Enterococcus faecalis, investigator assessment): (100.0) % | Overall Clinical Success at PTE, % ([1]; baseline pathogen Enterococcus faecium VSE, investigator assessment): (100.0) % | Overall Clinical Success at PTE, % ([1]; baseline pathogen Enterococcus faecium, investigator assessment): (100.0) % | Overall Clinical Success at PTE, % ([1]; baseline pathogen Escherichia coli, investigator assessment): (100.0) % | Overall Clinical Success at PTE, % ([1]; baseline pathogen Finegoldia magna, investigator assessment): (100.0) % | Overall Clinical Success at PTE, % ([1]; baseline pathogen Klebsiella pneumoniae, investigator assessment): (80.0) % | Overall Clinical Success at PTE, % ([1]; baseline pathogen MRSA, investigator assessment): (85.6) % | Overall Clinical Success at PTE, % ([1]; baseline pathogen MSSA, investigator assessment): (80.8) % | Overall Clinical Success at PTE, % ([1]; baseline pathogen Prevotella denticola, investigator assessment): (60.0) % | Overall Clinical Success at PTE, % ([1]; baseline pathogen Prevotella melaninogenica, investigator assessment): (100.0) % | Overall Clinical Success at PTE, % ([1]; baseline pathogen Staphylococcus aureus, investigator assessment): (82.7) % | Overall Clinical Success at PTE, % ([1]; baseline pathogen Staphylococcus lugdunensis, investigator assessment): (80.0) % | Overall Clinical Success at PTE, % ([1]; baseline pathogen Streptococcus agalactiae, investigator assessment): (50.0) % | Overall Clinical Success at PTE, % ([1]; baseline pathogen Streptococcus anginosus group, investigator assessment): (86.0) % | Overall Clinical Success at PTE, % ([1]; baseline pathogen Streptococcus anginosus, investigator assessment): (88.9) % | Overall Clinical Success at PTE, % ([1]; baseline pathogen Streptococcus constellatus, investigator assessment): (88.9) % | Overall Clinical Success at PTE, % ([1]; baseline pathogen Streptococcus intermedius, investigator assessment): (78.3) % | Overall Clinical Success at PTE, % ([1]; baseline pathogen Streptococcus mitis, investigator assessment): (100.0) % | Overall Clinical Success at PTE, % ([1]; baseline pathogen Streptococcus pyogenes, investigator assessment): (69.0) % | Overall Clinical Success at PTE, % ([1]; baseline pathogen Streptococcus viridans group, investigator assessment): (100.0) % | Overall clinical response at PTE: Clinical Failure ([1]; investigator assessment, CE-PTE): 6 (2.1) n (%) | Overall clinical response at PTE: Clinical Success ([1]; investigator assessment, CE-PTE (N = 284 / N = 292)): 278 (97.9) n (%) | Overall clinical response at PTE: Clinical Failure ([1]; investigator assessment, mITT): 12 (3.3) n (%) | Overall clinical response at PTE: Clinical Failure or Indeterminate ([1]; investigator assessment, mITT): 57 (15.8) n (%) | Overall clinical response at PTE: Indeterminate ([1]; investigator assessment, mITT): 45 (12.5) n (%) | Overall clinical response at PTE: Clinical Success ([1]; investigator assessment, mITT (N = 360 per arm)): 303 (84.2) n (%) | Difference in Overall Clinical Success rate at PTE, omadacycline minus linezolid ([1]; mITT): 3.3% | Difference (95% CI) in Overall Clinical Success rate at PTE [1, 2]: −4.5 (−14.0, 4.7) | Difference (95% CI) in Overall Clinical Success rate at PTE [1, 3]: −5.1 (−14.9, 4.3) | Difference (95% CI) in Overall Clinical Success rate at PTE [1, 4]: 5.3 (−8.4, 19.2) | Difference (95% CI) in Overall Clinical Success rate at PTE [1, 5]: 5.3 (−8.4, 19.2) | Difference (95% CI) in Overall Clinical Success rate at PTE [1, 6]: 5.7 (−2.0, 13.4) | Difference (95% CI) in Overall Clinical Success rate at PTE [1, 7]: 6.1 (−1.6, 13.7) | clinical success based on investigator's assessment of clinical response (ABSSSI; 7-14 days after the last dose): 86.1% | clinical success based on a reduction of lesion size (ABSSSI; 48-72 hours after the first dose, FDA primary analysis population (N=627)): 84.8% | non-inferiority to linezolid (ABSSSI; 7-14 days): non-inferior
